Read-outs that look alike come from different tables or passages of the source.
Assays:
[1] = target: T1, human FLT3 protein (FLT3 (WT)) (Homo sapiens, UniProt P36888); test: FLT3 inhibition test (FLT3 enzyme inhibition, time-resolved fluorescence of substrate peptide phosphorylation); assay type: biochemical; details: read-out: FLT3 (WT) enzyme inhibition activity
T1 construct: human FLT3 protein (intracellular region, 564 to 993 aa); GST; purchased Carna Biosciences; host or cells: baculovirus expression system
T1 sequence (P36888 564-993): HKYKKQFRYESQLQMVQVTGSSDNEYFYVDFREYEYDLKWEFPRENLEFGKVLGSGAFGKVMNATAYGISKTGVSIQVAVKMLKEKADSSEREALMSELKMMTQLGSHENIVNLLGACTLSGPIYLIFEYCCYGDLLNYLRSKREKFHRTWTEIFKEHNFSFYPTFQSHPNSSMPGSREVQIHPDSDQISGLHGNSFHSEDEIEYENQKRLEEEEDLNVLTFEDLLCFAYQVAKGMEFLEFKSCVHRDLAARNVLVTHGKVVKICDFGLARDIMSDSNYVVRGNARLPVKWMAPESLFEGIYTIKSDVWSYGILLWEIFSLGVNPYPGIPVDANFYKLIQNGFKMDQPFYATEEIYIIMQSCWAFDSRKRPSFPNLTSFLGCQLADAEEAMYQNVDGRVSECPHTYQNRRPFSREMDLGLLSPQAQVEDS
Procedure, shortened: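 Substrate peptide phosphorylation detected by time-resolved fluorescence after a 30 min kinase reaction at 25° C with 50 μM ATP (final). Beforehand, compound and FLT3 (WT, 1.2 μg) stood 15 min at 25° C in HEPES buffer pH 7.5 containing MgCl2, NaCl, BSA and DTT.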

MV4-11 cells = test: Leukemia cell proliferation inhibition test (ATPlite), MV4-11; assay type: cell-based; details: Homo sapiens, read-out: MV4-11 cell proliferation inhibition effect
Procedure, shortened: (§1)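 Molm-13 or MV4-11 cells in RPMI with 10% FBS and pen/strep, seeded at 10,000 cells per well, were exposed to serially diluted compound for 72 hours at 37° C, 5% CO2. Total cellular ATP was read by luciferase luminescence. GI50 came from sigmoid fits against the 0.1% DMSO control, in duplicate.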

Molm-13 cells = test: Leukemia cell proliferation inhibition test (ATPlite), Molm-13; assay type: cell-based; details: Homo sapiens, read-out: MOLM13 cell proliferation inhibition effect
Procedure, shortened: as §1

[2] = GST-fused human FLT3 (564 to 993 aa), ATP 50 μM
[3] = MV4-11, 72 h, MV4-11, 72 hours culture, ATPlite, GI50 per method
[4] = MOLM-13, 72 h, Molm-13, 72 hours culture, ATPlite, GI50 per method

SMILES | IC50 [1, 2] [nM] | IC50 (MV4-11 cells; [3]) [nM] | IC50 (Molm-13 cells; [4]) [nM] | IC50 ([1]; FLT3 (WT)) [nM] | IC50 (MV4-11 cells; MV4-11, MV4-11 cell) [nM] | IC50 (Molm-13 cells; MOLM-13, MOLM13 cell) [nM]
CCCNc1nc(Nc2ccc(C#N)cc2)nc(C)c1C#CCCCNC(=O)[C@H](C)N(C)C(=O)/C=C/CN(C)C [Compound 19-1, (S,E)-N-(1-((5-(2-((4-cyanophenyl)amino)-4-methyl-6-(propylamino)pyrimidin-5-yl)-4-pentyn-1-yl)amino)-1-oxopropan-2-yl)-4-(dimethylamino)-N-methyl-2-butenamide] | < 10 | 100 to 1000 | 100 to 1000 | – | – | –
CC(C)CN(C)c1nc(Nc2ccc(C#N)cc2)ncc1C#CCCCNC(=O)[C@H](C)N(C)C(=O)/C=C/CN(C)C [Compound 10-15] | < 10 | < 10 | < 10 | – | – | –
CNc1nc(Nc2ccc3[nH]ncc3c2)ncc1C#CCCCNC(=O)[C@@H]1CCCN1C(=O)/C=C/CN(C)C [Compound 10-66, (S,E)-N-(5-(2-((1H-Indazol-5-yl)amino)-4-(methylamino)pyrimidin-5-yl)-4-pentyn-1-yl)-1-(4-(dimethylamino)-2-butenoyl)pyrrolidine-2-carboxamide] | < 10 | < 10 | < 10 | – | – | –
CNc1nc(Nc2ccc(F)cc2)ncc1C#CCCCNC(=O)[C@@H]1C[C@H](O)CN1C(=O)/C=C/CN(C)C [Compound 7-84] | < 10 | < 10 | < 10 | – | – | –
CCCNc1nc(Nc2ccc3c(c2)c(F)nn3C)ncc1C#CCCCNC(=O)[C@H](C)N(C)C(=O)/C=C/CN(C)C [Compound 22-60] | – | – | – | < 10 | < 10 | < 10
C[C@@H](C(=O)NCCCC#Cc1cnc(Nc2ccc(C#N)cc2)nc1N1CCC(F)(F)C1)N(C)C(=O)/C=C/CN(C)C [Compound 10-42] | < 10 | < 10 | < 10 | – | – | –
CCCNc1nc(Nc2cccc(F)c2)ncc1-c1cc(CCNC(=O)[C@H](C)N(C)C(=O)/C=C/CN(C)C)no1 [Compound 17-1, (S,E)-4-(dimethylamino)-N-(1-((2-(5-(2-((3-fluorophenyl)amino)-4-(propylamino)pyrimidin-5-yl)isoxazol-3-yl)ethyl)amino)-1-oxopropan-2-yl)-N-methyl-2-butenamide] | < 10 | < 10 | < 10 | – | – | –
C[C@@H](C(=O)N[C@H]1CCC[C@@H](C#Cc2cnc(Nc3ccc(C#N)cc3)nc2N2CCOCC2)C1)N(C)C(=O)/C=C/CN(C)C [Compound 14-5] | < 10 | < 10 | < 10 | – | – | –
CNc1nc(Nc2ccc(OC)c(F)c2)ncc1C#C[C@H]1C[C@@H](NC(=O)[C@H](C)N(C)C(=O)/C=C/CN(C)C)C1 [Compound 13-16, (E)-4-(Dimethylamino)-N—((S)-1-(((1S,3R)-3-((2-((3-fluoro-4-methoxyphenyl)amino)-4-(methylamino)pyrimidin-5-yl)ethynyl)cyclobutyl)amino)-1-oxopropan-2-yl)-N-methyl-2-butenamide] | < 10 | < 10 | < 10 | – | – | –
C[C@@H](C(=O)NCCCC#Cc1cnc(Nc2ccc(F)nc2)nc1NCCCF)N(C)C(=O)/C=C/CN(C)C [Compound 10-34] | < 10 | < 10 | < 10 | – | – | –
CCCNc1nc(Nc2ccc3c(OC)n[nH]c3c2)ncc1C#CCCCNC(=O)[C@@H]1CCCN1C(=O)/C=C/CN(C)C [Compound 22-68] | – | – | – | < 10 | < 10 | < 10
C=CC(=O)N(C)[C@@H](C)C(=O)NCCCC#Cc1cnc(Nc2cccc(C#N)c2)nc1N1CCOCC1 [Compound 9-4] | < 10 | 10 to 100 | 10 to 100 | – | – | –
CCCNc1nc(Nc2cncc(Cl)c2)ncc1C#CCCCNC(=O)[C@H](C)N(C)C(=O)/C=C/CN(C)C [Compound 22-9] | – | – | – | < 10 | 10 to 100 | 10 to 100
CCCNc1nc(Nc2ccc(C#N)cc2)ncc1C#C[C@H]1CC[C@H](NC(=O)[C@H](C)N(C)C(=O)/C=C/CN(C)C)C1 [Compound 13-12] | < 10 | < 10 | < 10 | – | – | –
CCCNc1nc(Nc2cnc(N3CCOCC3)c(F)c2)ncc1C#CCCCNC(=O)[C@H](C)N(C)C(=O)/C=C/CN(C)C [Compound 21-8] | 10 to 100 | 10 to 100 | 10 to 100 | – | – | –
CCCNc1nc(NC(=O)Nc2ccncc2)ncc1C(=O)Nc1cccc(NC(=O)[C@H](C)N(C)C(=O)/C=C/CN(C)C)c1 [Compound 6-14] | < 10 | < 10 | 10 to 100 | – | – | –
C[C@@H](C(=O)NCCCC#Cc1cnc(Nc2cccc(F)c2)nc1N1CCOCC1)N(C)C(=O)/C=C/CN(C)C [Compound 10-5, (S,E)-4-(Dimethylamino)-N-(1-((5-(2-((3-fluorophenyl)amino)-4-morpholinopyrimidin-5-yl)-4-pentyn-1-yl)amino)-1-oxopropan-2-yl)-N-methyl-2-butenamide] | < 10 | < 10 | < 10 | – | – | –

SMILES | IC50 [1, 2] [nM] | IC50 (MV4-11 cells; [3]) [nM] | IC50 (Molm-13 cells; [4]) [nM] | IC50 ([1]; FLT3 (WT)) [nM] | IC50 (MV4-11 cells; MV4-11, MV4-11 cell) [nM] | IC50 (Molm-13 cells; MOLM-13, MOLM13 cell) [nM]
CCCNc1nc(Nc2cc(F)c3c(c2)c(N(C)C)nn3C)ncc1C#CCCCNC(=O)[C@H](C)N(C)C(=O)/C=C/CN(C)C [Compound 22-13] | – | – | – | 10 to 100 | 100 to 1000 | 10 to 100
C[C@@H](C(=O)NCCCC#Cc1cnc(Nc2ccc(C#N)cc2)nc1NCC1CC1)N(C)C(=O)/C=C/CN(C)C [Compound 21-12] | < 10 | < 10 | < 10 | – | – | –
C=CC(=O)NCC(=O)NCCCNC(=O)c1cnc(NCCc2ccncc2)nc1NCCC [Compound 2-2, N-(3-(2-(acrylylamido)actamido)propyl)-4-(propylamino)-2-((2-(pyridin-4-yl)ethyl)amino)pyrimidine-5-carboxamide] | < 10 | 10 to 100 | 10 to 100 | – | – | –
CCCNc1nc(Nc2ccc3c(F)nn(C)c3c2)ncc1C#CCCCNC(=O)[C@@H]1CCCN1C(=O)/C=C/CN(C)C [Compound 22-59] | – | – | – | < 10 | < 10 | < 10
CCCNc1nc(Nc2ccc(C(N)=O)cc2)ncc1C(=O)Nc1cccc(NC2CCN(C(=O)/C=C/CN(C)C)C2)c1 (stereo not drawn) [Compound 3-20] | < 10 | 10 to 100 | 100 to 1000 | – | – | –
CCCNc1nc(Nc2cccc(F)c2)ncc1C#C[C@@H]1CC[C@H](NC(=O)[C@H](C)N(C)C(=O)/C=C/CN(C)C)C1 [Compound 13-10] | < 10 | < 10 | < 10 | – | – | –
CCCNc1nc(Nc2ccc(C(N)=O)cc2)ncc1C#CCCCNC1(CNC(=O)/C=C/CN(C)C)CCOCC1 [Compound 8-12] | < 10 | 10 to 100 | 10 to 100 | – | – | –
CCCNc1nc(Nc2cccc3cn[nH]c23)ncc1C#CCCCNC(=O)[C@H](C)N(C)C(=O)/C=C/CN(C)C [Compound 21-56] | – | – | – | 10 to 100 | 100 to 1000 | 100 to 1000
CCCNc1nc(Nc2cnc3c(c2)c(C)nn3CCOC)ncc1C#CCCCNC(=O)[C@@H]1CCCN1C(=O)/C=C/CN(C)C [Compound 22-46] | – | – | – | < 10 | < 10 | < 10
CCCNc1nc(Nc2ccc(C(N)=O)cc2)ncc1C(=O)Nc1cccc(NC(=O)[C@H](C)N(C)C(=O)/C=C/CN(C)CC)c1 [Compound 4-3] | < 10 | < 10 | < 10 | – | – | –
CNc1nc(Nc2ccc3c(cnn3C)c2)ncc1C#CCCCNC(=O)[C@H](C)N(C)C(=O)/C=C/CN(C)C [Compound 10-52] | < 10 | < 10 | < 10 | – | – | –
CCCNc1nc(Nc2cnc3c(c2)c(OC)nn3C)ncc1C#CCCCNC(=O)[C@H](C)N(C)C(=O)/C=C/CN(C)C [Compound 22-29] | – | – | – | < 10 | < 10 | < 10
C[C@@H](C(=O)NCCCC#Cc1cnc(Nc2ccc(C#N)cc2)nc1Nc1ccc(F)cc1)N(C)C(=O)/C=C/CN(C)C [Compound 10-2, (S,E)-N-(1--((5-(2-((4-cyanophenyl)amino)-4-((4-fluorophenyl)amino)pyrimidin-5-yl)-4-pentyn-1-yl)amino)-1-oxopropan-2-yl)-4-(dimethylamino)-N-methyl-2-butenamide] | < 10 | < 10 | < 10 | – | – | –
C=CC(=O)NCC(=O)NCCNC(=O)c1cnc(NCCc2ccncc2)nc1NCCC [Compound 2-18] | 10 to 100 | > 1000 | > 1000 | – | – | –
C=CC(=O)N(C)CC(=O)Nc1cccc(NC(=O)c2cnc(NCCc3ccncc3)nc2NCCC)c1 [Compound 1-3] | < 10 | < 10 | < 10 | – | – | –
CCCNc1nc(Nc2ccc(C(N)=O)cc2)ncc1C#Cc1cccc(NCCNC(=O)/C=C/CN(C)C)c1 [Compound 8-5] | < 10 | 10 to 100 | 10 to 100 | – | – | –

Reference: patent US9145415B2, “Nitrogen-containing heterocyclic compound or salt thereof” (FUJIFILM Corporation, priority 2012, dated 2015)
